According to the NIST ThermoML archive (doi:10.1021/je800609u):

Key:
[1] = refractive index (Na D-line) (dimensionless); mn = molality of the nth substance listed, in mol/kg; details: 101 kPa, Liquid
[2] = osmotic coefficient (dimensionless); mn = molality of the nth substance listed, in mol/kg; details: Liquid, vapor pressure osmometery method

CCCCn1cc[n+](C)c1.[I-] [1-butyl-3-methylimidazolium iodide] + O
Details | osmotic coefficient, 298.15 K | osmotic coefficient, 308.15 K | osmotic coefficient, 318.15 K | osmotic coefficient, 328.15 K | refractive index, 298.15 K | refractive index, 308.15 K | refractive index, 318.15 K | refractive index, 328.15 K
[1], m1 = 0.0133 | – | – | – | – | 1.3331 | 1.3321 | 1.3305 | 1.3285
[1], m1 = 0.0293 | – | – | – | – | 1.3336 | 1.3325 | 1.331 | 1.3289
[1], m1 = 0.0442 | – | – | – | – | 1.3343 | 1.333 | 1.3316 | 1.3293
[1], m1 = 0.0505 | – | – | – | – | 1.3346 | 1.3334 | 1.3317 | 1.3298
[1], m1 = 0.0786 | – | – | – | – | 1.3356 | 1.3344 | 1.3328 | 1.331
[1], m1 = 0.0995 | – | – | – | – | 1.3365 | 1.3353 | 1.3336 | 1.3315
[1], m1 = 0.1307 | – | – | – | – | 1.3376 | 1.3363 | 1.3347 | 1.3329
[1], m1 = 0.1782 | – | – | – | – | 1.3395 | 1.3381 | 1.3364 | 1.3347
[1], m1 = 0.216 | – | – | – | – | 1.341 | 1.3397 | 1.338 | 1.3359
[1], m1 = 0.3257 | – | – | – | – | 1.3449 | 1.3435 | 1.3418 | 1.3404
[1], m1 = 0.4065 | – | – | – | – | 1.3478 | 1.3467 | 1.3447 | 1.3433
[1], m1 = 0.5184 | – | – | – | – | 1.3519 | 1.3503 | 1.3487 | 1.3464
[1], m1 = 0.6452 | – | – | – | – | 1.356 | 1.3548 | 1.3529 | 1.3507
[1], m1 = 0.7509 | – | – | – | – | 1.3595 | 1.358 | 1.3561 | 1.3541
[1], m1 = 0.8786 | – | – | – | – | 1.3635 | 1.362 | 1.36 | 1.3578
[1], m1 = 1.154 | – | – | – | – | 1.3714 | 1.3701 | 1.368 | 1.3657
[1], m1 = 1.837 | – | – | – | – | 1.3893 | 1.3876 | 1.3853 | 1.3831
[1], m1 = 2.589 | – | – | – | – | 1.4054 | 1.4035 | 1.4012 | 1.3986
[2], m1 = 0.0133 | 0.833 | 0.856 | 0.899 | 0.91 | – | – | – | –
[2], m1 = 0.0293 | 0.821 | 0.843 | 0.888 | 0.889 | – | – | – | –
[2], m1 = 0.0442 | 0.792 | 0.821 | 0.88 | 0.885 | – | – | – | –
[2], m1 = 0.0505 | 0.784 | 0.814 | 0.869 | 0.878 | – | – | – | –
[2], m1 = 0.0786 | 0.766 | 0.788 | 0.845 | 0.861 | – | – | – | –
[2], m1 = 0.0995 | 0.761 | 0.78 | 0.819 | 0.833 | – | – | – | –
[2], m1 = 0.1307 | 0.751 | 0.765 | 0.782 | 0.807 | – | – | – | –
[2], m1 = 0.1782 | 0.711 | 0.734 | 0.758 | 0.778 | – | – | – | –
[2], m1 = 0.216 | 0.697 | 0.714 | 0.74 | 0.768 | – | – | – | –
[2], m1 = 0.3257 | 0.644 | 0.662 | 0.706 | 0.715 | – | – | – | –
[2], m1 = 0.4065 | 0.613 | 0.645 | 0.682 | 0.69 | – | – | – | –
[2], m1 = 0.5184 | 0.596 | 0.626 | 0.644 | 0.662 | – | – | – | –
[2], m1 = 0.6452 | 0.564 | 0.581 | 0.61 | 0.619 | – | – | – | –
[2], m1 = 0.7509 | 0.554 | 0.566 | 0.574 | 0.586 | – | – | – | –
[2], m1 = 0.8786 | 0.528 | 0.553 | 0.558 | 0.569 | – | – | – | –
[2], m1 = 1.154 | 0.47 | 0.501 | 0.521 | 0.528 | – | – | – | –
[2], m1 = 1.837 | 0.405 | 0.413 | 0.429 | 0.45 | – | – | – | –
[2], m1 = 2.589 | 0.362 | 0.38 | 0.387 | 0.408 | – | – | – | –
